Laboratory results taken from patent US11912719B2, “Substituted isoquinolines as rock kinase inhibitors” (Cervello Therapeutics LLC, priority 2018, dated 2024).
Read-outs that look alike come from different tables or passages of the source.

Experiments:
Format in all cases: biochemical
PKACα (PRKACA) = target: T1, PKACα (PRKACA) (Homo sapiens, UniProt P17612); assay: fluorescence coupling (TR-FRET) enzymatic assay, PKACA off-target control; conditions: 10 pM enzyme, 1 μM ATP, 50 nM Ulight-CREBTide, one hour room temperature
T1 construct: GST; purchased Carna BioSciences 01-127
Experimental: (§1) Dose-response curves for compounds of the present invention were determined using a fluorescence coupling enzymatic assay using purified C-terminal truncated human ROCK1 catalytic domain (amino acids 1-477 of accession number NP_005397.1) fused to GST (Carna BioSciences, Catalog #01-109) and purified C-terminal truncated human ROCK2 enzyme kinase domain (amino acids 1-553 of accession number NP_004841.2) fused to GST BioSciences, Catalog #01-110). In addition, full length cGMP-dependent protein kinase 1 (PKG or PRKG1; amino acids 1-686 of accession number NP_006249.1) fused to GST (Carna BioSciences, Catalog #01-142), full length PKACα (PRKACA; amino acids 1-351 of accession number NP_002721.1) fused to GST (Carna BioSciences, Catalog #01-127), and C-terminal truncated human AKT1 catalytic domain (amino acids 104-480 of accession number NP_005154.1) fused to GST Biosciences, Catalog #01-101) were used as a control to measure any non-desired off-target kinase activity.
(§2) Briefly, compounds of the present invention were solubilized in DMSO and a series of 12, three-fold serial dilutions were made for each compound in 2.5% DMSO. The initial starting concentration for the serial dilutions of each compound was 10 μM or 100 μM. Control samples lacking compound, ROCK enzyme or ATP also were prepared and processed in parallel with compound test samples.
(§3) A 4 μL aliquot of each serial dilution of test compound diluted in H2O with 2.5% DMSO was added to a well containing 4 μL of 10 nM purified N-truncated ROCK1 (4 nM final concentration), 10 nM purified N-truncated ROCK2 enzyme (4 nM final concentration), 1.25 nM AKT1 (0.5 nM final concentration), 25 pM PKACA (10 pM final concentration) or 20 nM PKG (8 nM final concentration), in reaction buffer containing 50 mM Hepes, pH 7.5, 1 mM EGTA, 10 mM MgCl2, 2 mM DTT, and 0.01% Tween 20 (final concentration). To initiate the enzymatic reaction, 2 μL of a solution was added to each well to provide a final concentration of 50 nM Ulight-CREBTide peptide substrate (Perkin Elmer, Catalog #TRF0107) and 4 μM ATP for ROCK1 and AKT1 assays, […] for ROCK2 assays and 30 μM ATP for PKG assays, or 1 μM ATP for PKACA assays. The reaction mixtures were incubated at room temperature for one hour. After one hour, the reaction was stopped by the addition of a 10 solution of an Europium-labelled phospho-CREB (Ser133) antibody (Perkin Elmer, Catalog #TRF0200) in LANCE buffer supplemented with 20 mM EDTA. The stopped reaction mixtures were incubated at room temperature for 90 minutes. The TR-FRET 665/620 ratios were determined using a Clariostar monochromator plate reader instrument (BMG LabTech) in accordance with the manufacturer's instructions. The ICso value for each compound was determined from each dose-response curve using GraphPad Prism 7 software with a sigmodial dose response. Key: A is IC50≤100 nM; B is 100 nM<IC50<1000 nM; C is 1,000<IC50≤10,000 nM; D is IC50>10,000 nM

[1] = target: T2, human AKT1 catalytic domain (Homo sapiens, UniProt P31749); assay: fluorescence coupling (TR-FRET) enzymatic assay, AKT1 off-target control; conditions: 0.5 nM enzyme, 4 μM ATP, 50 nM Ulight-CREBTide, one hour room temperature
T2 construct: GST; purchased Carna BioSciences 01-101
Experimental: as §1, §2, §3

[2] = target: T3, human ROCK1 catalytic domain (Homo sapiens, UniProt Q13464); assay: fluorescence coupling (TR-FRET) enzymatic assay, ROCK1
T3 construct: GST; purchased Carna BioSciences 01-109
Experimental: as §2
The reaction mixtures were incubated at room temperature for one hour. After one hour, the reaction was stopped by the addition of a 10 solution of an Europium-labelled phospho-CREB (Ser133) antibody (Perkin Elmer, Catalog #TRF0200) in LANCE buffer supplemented with 20 mM EDTA. The stopped reaction mixtures were incubated at room temperature for 90 minutes. […] The ICso value for each compound was determined from each dose-response curve using GraphPad Prism 7 software with a sigmodial dose response.

[3] = target: T4, cGMP-dependent protein kinase 1 (PKG or PRKG1) (Homo sapiens, UniProt Q13976); assay: fluorescence coupling (TR-FRET) enzymatic assay, PKG off-target control; conditions: 8 nM enzyme, 30 μM ATP, 50 nM Ulight-CREBTide, one hour room temperature
T4 construct: GST; purchased Carna BioSciences 01-142
T4 sequence (Q13976 1-686 isoform Q13976-2): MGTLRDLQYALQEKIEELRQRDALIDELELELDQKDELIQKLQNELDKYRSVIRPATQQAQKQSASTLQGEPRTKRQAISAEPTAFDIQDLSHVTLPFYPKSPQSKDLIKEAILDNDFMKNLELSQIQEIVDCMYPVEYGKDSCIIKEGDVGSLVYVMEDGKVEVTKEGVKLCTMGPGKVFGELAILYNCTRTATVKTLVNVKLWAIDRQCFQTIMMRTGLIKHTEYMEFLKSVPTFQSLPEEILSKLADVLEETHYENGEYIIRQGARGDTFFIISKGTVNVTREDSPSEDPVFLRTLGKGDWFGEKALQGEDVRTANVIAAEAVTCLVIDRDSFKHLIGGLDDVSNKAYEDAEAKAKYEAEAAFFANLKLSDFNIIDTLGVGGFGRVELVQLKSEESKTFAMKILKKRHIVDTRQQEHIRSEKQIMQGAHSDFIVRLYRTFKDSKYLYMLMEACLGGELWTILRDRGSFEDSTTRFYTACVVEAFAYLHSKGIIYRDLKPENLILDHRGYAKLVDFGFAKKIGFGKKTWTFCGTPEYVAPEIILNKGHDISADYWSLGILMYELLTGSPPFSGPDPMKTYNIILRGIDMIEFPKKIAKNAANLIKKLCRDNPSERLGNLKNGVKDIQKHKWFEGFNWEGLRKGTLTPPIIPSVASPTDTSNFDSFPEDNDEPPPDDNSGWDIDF
Experimental: as §1, §2, §3

[4] = target: T5, human ROCK2 enzyme kinase domain (Homo sapiens, UniProt O75116); assay: fluorescence coupling (TR-FRET) enzymatic assay, ROCK2; conditions: 4 nM enzyme, 50 nM Ulight-CREBTide, one hour room temperature
T5 construct: GST; purchased Carna BioSciences 01-110
Experimental: as §1, §2, §3

[5] = 4 nM enzyme, 4 μM ATP, 50 nM Ulight-CREBTide, one hour room temperature, read-out: ROCK1 IC50

T3 sequence (Q13464 1-477): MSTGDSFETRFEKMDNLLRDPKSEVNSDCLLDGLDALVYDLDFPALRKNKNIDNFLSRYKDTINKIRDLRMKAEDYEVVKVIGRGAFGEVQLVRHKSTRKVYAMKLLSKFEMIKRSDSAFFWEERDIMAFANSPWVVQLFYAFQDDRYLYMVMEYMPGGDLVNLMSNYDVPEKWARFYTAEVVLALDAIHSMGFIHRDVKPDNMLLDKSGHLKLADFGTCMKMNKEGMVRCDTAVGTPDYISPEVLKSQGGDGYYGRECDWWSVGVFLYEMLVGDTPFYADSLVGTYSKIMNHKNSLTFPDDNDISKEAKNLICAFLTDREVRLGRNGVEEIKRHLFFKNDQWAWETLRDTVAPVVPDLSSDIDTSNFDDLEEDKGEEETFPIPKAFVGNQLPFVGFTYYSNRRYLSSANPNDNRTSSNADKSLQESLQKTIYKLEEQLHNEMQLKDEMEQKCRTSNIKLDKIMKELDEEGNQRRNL
T2 sequence (P31749 104-480): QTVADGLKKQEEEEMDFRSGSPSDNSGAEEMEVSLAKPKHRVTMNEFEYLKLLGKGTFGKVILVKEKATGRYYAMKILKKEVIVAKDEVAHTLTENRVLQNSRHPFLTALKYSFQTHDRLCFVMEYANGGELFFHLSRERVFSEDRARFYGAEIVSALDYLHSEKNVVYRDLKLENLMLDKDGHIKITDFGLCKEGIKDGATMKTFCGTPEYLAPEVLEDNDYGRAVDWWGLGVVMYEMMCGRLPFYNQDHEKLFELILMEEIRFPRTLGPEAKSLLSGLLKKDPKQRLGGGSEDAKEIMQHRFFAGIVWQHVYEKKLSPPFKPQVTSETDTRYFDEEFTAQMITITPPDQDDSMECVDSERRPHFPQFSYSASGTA
T5 sequence (O75116 1-553): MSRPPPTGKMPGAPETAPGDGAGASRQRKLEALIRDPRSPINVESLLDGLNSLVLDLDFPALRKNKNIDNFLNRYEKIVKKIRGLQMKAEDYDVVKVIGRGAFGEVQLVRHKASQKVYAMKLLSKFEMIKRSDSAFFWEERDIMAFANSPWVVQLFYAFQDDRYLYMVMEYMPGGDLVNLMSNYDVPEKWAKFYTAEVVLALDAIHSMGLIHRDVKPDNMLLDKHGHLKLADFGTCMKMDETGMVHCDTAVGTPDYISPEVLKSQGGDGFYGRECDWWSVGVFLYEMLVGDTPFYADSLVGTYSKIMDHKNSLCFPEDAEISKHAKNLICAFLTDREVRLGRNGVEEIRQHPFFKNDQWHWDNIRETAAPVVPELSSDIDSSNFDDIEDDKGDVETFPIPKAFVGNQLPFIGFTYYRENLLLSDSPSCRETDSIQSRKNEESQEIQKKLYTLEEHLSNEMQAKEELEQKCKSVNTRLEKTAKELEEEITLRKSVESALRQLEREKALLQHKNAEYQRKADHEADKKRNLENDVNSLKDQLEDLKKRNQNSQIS

IC50 (PKACα (PRKACA)) [µM]	IC50 [1] [µM]	IC50 [2, 5] [µM]	IC50 [3] [µM]	IC50 [4] [nM]	IC50 [2] [µM]	Compound
> 10	> 10	1 to 10	> 10	1000 to 10000	–	Cc1cccc2c1CCN2S(=O)(=O)c1cccc2c(=O)[nH]ccc12 [Example 1, 5-((4-Methylindolin-1-yl)sulfonyl)isoquinolin-1 (2H)-one]
> 10	> 10	> 10	> 10	> 10000	–	O=c1[nH]ccc2c(S(=O)(=O)N3CCc4cc(O)ccc43)cccc12 [Example 2, 5-((5-Hydroxyindolin-1-yl)sulfonyl)isoquinolin-1 (2H)-one]
> 10	> 10	1 to 10	> 10	1000 to 10000	–	O=c1[nH]ccc2c(S(=O)(=O)N3CCc4ccccc43)cccc12 [Example 3, 5-(Indolin-1-ylsulfonyl)isoquinolin-1 (2H)-one]
> 10	> 10	0.1 to 1	> 10	100 to 1000	–	O=c1[nH]ccc2c(S(=O)(=O)N3CCc4ccc(Cl)cc43)cccc12 [Example 4, 5-((6-Chloroindolin-1-yl)sulfonyl)isoquinolin-1 (2H)-one]
> 10	> 10	1 to 10	> 10	1000 to 10000	–	O=c1[nH]ccc2c(S(=O)(=O)N3CCc4ccc(F)cc43)cccc12 [Example 5, 5-((6-Fluoroindolin-1-yl)sulfonyl)isoquinolin-1 (2H)-one]
> 10	> 10	1 to 10	> 10	100 to 1000	–	Cc1ccc2c(c1)N(S(=O)(=O)c1cccc3c(=O)[nH]ccc13)CC2 [Example 6, 5-((6-Methylindolin-1-yl)sulfonyl)isoquinolin-1 (2H)-one]
> 10	> 10	–	> 10	1000 to 10000	1 to 10	O=c1[nH]ccc2c(S(=O)(=O)N3CCc4c(CO)cccc43)cccc12 [Example 7, 5-((4-(Hydroxymethyl)indolin-1-yl)sulfonyl)isoquinolin-1 (2H)-one]
> 10	> 10	> 10	> 10	> 10000	–	O=c1[nH]ccc2c(S(=O)(=O)N3CCc4c3cccc4C(F)(F)F)cccc12 [Example 8, 5-((4-(Trifluoromethyl)indolin-1-yl)sulfonyl)isoquinolin-1 (2H)-one]
> 10	> 10	> 10	> 10	> 10000	–	O=c1[nH]ccc2c(S(=O)(=O)N3CCc4c(C5CC5)cccc43)cccc12 [Example 9, 5-((4-Cyclopropylindolin-1-yl)sulfonyl)isoquinolin-1 (2H)-one]
> 10	> 10	> 10	> 10	> 10000	–	CCc1cccc2c1CCN2S(=O)(=O)c1cccc2c(=O)[nH]ccc12 [Example 10, 5-((4-ethylindolin-1-yl)sulfonyl)isoquinolin-1 (2H)-one]
> 10	> 10	1 to 10	> 10	1000 to 10000	–	CC(O)c1cccc2c1CCN2S(=O)(=O)c1cccc2c(=O)[nH]ccc12 (centres unmarked) [Example 11, 5-((4-(1-Hydroxyethyl)indolin-1-yl)sulfonyl)isoquinolin-1 (2H)-one]
> 10	> 10	> 10	> 10	> 10000	–	CC1(C)CN(S(=O)(=O)c2cccc3c(=O)[nH]ccc23)c2ccccc21 [Example 12, 5-((3,3-Dimethylindolin-1-yl)sulfonyl)isoquinolin-1 (2H)-one]
> 10	> 10	> 10	> 10	> 10000	–	CC1CN(S(=O)(=O)c2cccc3c(=O)[nH]ccc23)c2ccccc21 (centres unmarked) [Example 13, 5-((3-Methylindolin-1-yl)sulfonyl)isoquinolin-1 (2H)-one]
> 10	> 10	> 10	> 10	> 10000	–	CC(C)c1cccc2c1CCN2S(=O)(=O)c1cccc2c(=O)[nH]ccc12 [Example 14, 5-((4-Isopropylindolin-1-yl)sulfonyl)isoquinolin-1 (2H)-one]
> 10	> 10	0.1 to 1	> 10	< 100	–	N#Cc1ccc2c(c1)N(S(=O)(=O)c1cccc3c(=O)[nH]ccc13)CC2 [Example 15, 1-((1-Oxo-1,2-dihydroisoquinolin-5-yl)sulfonyl)indoline-6-carbonitrile]
> 10	> 10	1 to 10	> 10	1000 to 10000	–	O=c1[nH]ccc2c(S(=O)(=O)N3CCc4c(Cl)cc(Cl)cc43)cccc12 [Example 16, 5-((4,6-Dichloroindolin-1-yl)sulfonyl)isoquinolin-1 (2H)-one]
> 10	> 10	0.1 to 1	> 10	100 to 1000	–	N#Cc1cc(C2CC2)c2c(c1)N(S(=O)(=O)c1cccc3c(=O)[nH]ccc13)CC2 [Example 17]
> 10	> 10	0.1 to 1	> 10	100 to 1000	–	Cc1cc(C#N)cc2c1CCN2S(=O)(=O)c1cccc2c(=O)[nH]ccc12 [Example 18]
> 10	> 10	> 10	> 10	> 10000	–	O=c1[nH]ccc2c(S(=O)(=O)N3CCc4ccc(Cl)cc43)cc(Cl)cc12 [Example 19, 7-Chloro-5-((6-chloroindolin-1-yl)sulfonyl)isoquinolin-1 (2H)-one]
